Read-outs that look alike come from different tables or passages of the source.
What was measured:
RecQ-WH = target: T1, RecQ-WH (Escherichia coli, UniProt P15043); experiment: Pull-down assay with immobilized protein and LSM libraries; design: species or system E. coli; details: 1:1 binding assumed, read-out: Surface mapping KD (apparent)
T1 construct: coding for residues 408– 523 of E. coli RecQ; made in house; host or cells: E. coli BL21(DE3)
Method: Pull-down assays with immobilized test proteins and foldameric LSM libraries were carried out. Proteins were equilibrated with LSM probes, and equilibrium bound fractions (FB) were determined from the unbound fractions measured by HPLC-MS methods. Hits were corrected with background binding of the resin. The protocol allowed all binding events to equilibrate irrespective of affinity, specificity, and binding kinetics. This was essential to judge overall druggability and promiscuity. Importantly, the concentration of protein and the total concentration of foldameric LSMs were equimolar, which minimized competition between the probes. This experimental setup approximated independent binding of individual library members. Results were visualized as heat maps of dissociation constants (Fig. 3).
Pull-down assay and data analysis
Pull-down assay. LSM sublibraries were screened separately as previously described.(2) Experiments were performed in the following buffers: (i) 20 mM pH 7.4 HEPES, 150 mM NaCl, 5 mM CaCl2 for CaM; (ii) 50 mM pH 7.4 HEPES, 150 mM NaCl, 1 mM TCEP, 1 mM CaCl2 for S100 proteins; (iii) 20 mM pH 7.4 HEPES, 150 mM NaCl, 1 mM TCEP for Gal-1 and (iv) 20 mM pH 7.4 HEPES, 150 mM NaCl for RecQ-WH. Assays were performed in paper filter spin cups (Thermo Scientific) with sample volumes of 100 µl. Hexahistidine-tagged proteins were immobilized on previously washed Co-NTA resin (TALON, Takara Bio USA, Inc., Mountain View, CA) in 64 µM final concentration. LSM sublibrary was added, in which each of the 64 library members were used at a concentration of 1 µM. Samples were incubated at room temperature for 30 min with shaking at 100 rpm. Then, samples were centrifuged at 1000 rpm for 2 min and washed with 100 µl pull-down buffer to remove unbound compounds.
The control experiments were performed using the same compounds and the resin but without the immobilized protein. In case of competitive assays, competitor peptides were added to LSM sublibrary samples in 200 µM final concentration. In the case of Gal-1, lactose (competitor) was used in a concentration of 10 mM. Experiments were performed at least twice. Mean […]
LC-MS methods and parameters. HPLC/ESI-MS analysis was used to characterize the samples from the pull-down assay. LC-MS analysis was performed with a Thermo Scientific Dionex UltiMate 3000 HPLC system interfaced to an LTQ ion trap mass spectrometer (Thermo Electron Corp., San Jose, CA, USA). Samples were injected onto an Aeris Widepore XB-C18 (250 x 4.6 mm) analytical HPLC column using gradient elution 5-80 % solution B during 25 minutes. For pull-down samples, eluent composition was 0.1% acetic acid in distilled water (Solution A) and 0.1% acetic acid in acetonitrile (solution B). Mass spectra were acquired in full scan mode from 200 to 2000 m/z range. For overlapping peaks, selective reaction monitoring (SRM) was […]
MS data analysis. Thermo Xcalibur 2.2 software was used for peak identification and integration. The majority of the foldameric fragments could be resolved independently via HPLC-MS/MS measurements based on molecular weight, MS fragmentation pattern and retention time. Peaks of some foldamers with β3-hIle or β3-hLeu in position R2 could not be resolved, these were integrated and averaged. In the processing method, each sample component was associated to a chromatographic peak based on previously identified mass (m/z) and retention time (ref (2) and Table S7-10). Using ICIS peak detection algorithm, the general detection and integration criteria were: smoothing points: 5, baseline window: 80, area noise factor: 5, peak noise factor: 10. Using these processing setups, all raw data files were reprocessed together and analyzed. Errors in peak identification during the automatic processing were corrected manually.
Calculation of the discussed parameters
1. Bound fractions (FB.) were calculated from the HPLC-MS intensity loss of the LSM probes compared to the control where no protein was immobilized to the resin: […]

S100B = target: T2, S100B (Homo sapiens, UniProt P04271); experiment: as above; type: binding; details: 1:1 binding assumed, read-out: Surface mapping KD (apparent)
T2 construct: made in house; host or cells: Escherichia coli BL21(DE3)
T2 sequence (P04271 1-92): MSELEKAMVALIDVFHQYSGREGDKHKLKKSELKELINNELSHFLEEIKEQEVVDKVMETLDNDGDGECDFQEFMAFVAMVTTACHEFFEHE
Outline: (§1)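 Buffers were HEPES pH 7.4 with 150 mM NaCl, plus 1 mM TCEP and 1 mM CaCl2 (50 mM HEPES) for S100A4 and S100B, 1 mM TCEP for Gal-1, and no additive for RecQ-WH. Immobilized protein at 64 µM was equilibrated 30 min with the LSM sublibrary, and unbound probes were measured by LC-MS.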

S100A4 = target: T3, S100A4 (Homo sapiens, UniProt P26447); experiment: as above; type: binding; details: 1:1 binding assumed, read-out: Surface mapping KD (apparent)
T3 construct: made in house; host or cells: Escherichia coli BL21(DE3)
T3 sequence (P26447 whole entry): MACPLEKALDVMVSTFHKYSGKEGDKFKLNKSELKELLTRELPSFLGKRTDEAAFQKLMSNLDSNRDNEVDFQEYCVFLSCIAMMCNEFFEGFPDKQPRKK
Outline: as §1

CaM = target: T4, CaM (Bos taurus, UniProt P62157); experiment: as above; type: binding, bovine; details: 1:2 stoichiometry assumed, read-out: Surface mapping KD (apparent)
T4 construct: made in house; host or cells: E. coli BL21 (DE3)
Outline: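 His-tagged protein immobilized on Co-NTA resin, equilibrated 30 min at room temperature with LSM sublibraries (64 members, […]), equimolar protein to total probe. CaM buffer: 20 mM HEPES pH 7.4, 150 mM NaCl, 5 mM CaCl2. Bound fractions from HPLC-MS loss of unbound probe versus protein-free resin control; Kd derived.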

Gal-1 [1] = target: T5, Gal-1 (Homo sapiens, UniProt P09382); experiment: as above; type: binding; details: H12 library; 1:1 binding assumed; read-out: Surface mapping KD (apparent)
T5 construct: made in house; host or cells: E. coli BL21(DE3)
T5 sequence (P09382 whole entry): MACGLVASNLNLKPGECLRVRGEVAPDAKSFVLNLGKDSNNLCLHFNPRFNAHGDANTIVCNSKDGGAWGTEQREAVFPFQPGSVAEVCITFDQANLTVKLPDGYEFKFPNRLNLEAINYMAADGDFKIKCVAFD
Outline: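 His-tagged protein immobilized on Co-NTA resin (64 µM) in 20 mM HEPES pH 7.4, 150 mM NaCl, equilibrated 30 min at room temperature with foldamer LSM sublibraries at equimolar total concentration. Unbound fractions quantified by HPLC-MS versus protein-free resin control; apparent KD assumes 1:1 binding.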

Gal-1 [2] = target: T5, Gal-1; experiment: Competition pull-down with lactose; type: binding; details: H14 library; lactose 10 mM; read-out: Surface mapping KD (apparent), competition
Outline: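 His6-tagged proteins immobilized on Co-NTA resin at 64 µM final with 64-member LSM foldamer sublibraries (1 M each, as printed) in pH 7.4 HEPES/NaCl buffers (Ca2+/TCEP per target), 30 min RT; competitor peptides 200 µM final, lactose 10 mM for Gal-1. Bound fractions from LC-MS loss vs protein-free resin; KD assuming 1:1 binding.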

T1 sequence (P15043 408-523): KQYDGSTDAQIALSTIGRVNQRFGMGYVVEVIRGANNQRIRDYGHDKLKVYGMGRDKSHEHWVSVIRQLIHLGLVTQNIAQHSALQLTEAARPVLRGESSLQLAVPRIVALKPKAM

CC[C@H](C)[C@@H](CC(=O)N[C@H]1CCCC[C@@H]1C(N)=O)NC(=O)[C@H]1CCCC[C@@H]1NC(=O)[C@H]1CCCC[C@@H]1NC(=O)C[C@H](CCCNC(=N)N)NC(=O)[C@H]1CCCC[C@@H]1N [H14 RI]
Kd (RecQ-WH; H14 library): 237 µM | Kd (S100B; H14 library): 31 µM | Kd (S100A4; H14 library): 51 µM | Kd (CaM; H14 library): 10 µM

N=C(N)NCCC[C@@H](CC(=O)N[C@H]1CCC[C@@H]1C(=O)N[C@H]1CCC[C@@H]1C(N)=O)NC(=O)[C@H]1CCC[C@@H]1NC(=O)[C@H]1CCC[C@@H]1NC(=O)C[C@H](Cc1c[nH]c2ccccc12)NC(=O)[C@H]1CCC[C@@H]1NC(=O)[C@H]1CCC[C@@H]1N [H12 WR]
Kd (RecQ-WH; H12 library): 206 µM | Kd (S100B; H12 library): 15 µM | Kd (S100A4; H12 library): 326 µM | Kd (CaM; H12 library): 226 µM

N=C(N)NCCC[C@@H](CC(=O)N[C@H]1CCCC[C@@H]1C(=O)N[C@H]1CCCC[C@@H]1C(=O)N[C@H](CC(=O)N[C@H]1CCCC[C@@H]1C(N)=O)Cc1c[nH]c2ccccc12)NC(=O)[C@H]1CCCC[C@@H]1N [H14 RW]
Kd (RecQ-WH; H14 library): 201 µM | Kd (S100B; H14 library): 13 µM | Kd (S100A4; H14 library): 56 µM | Kd (CaM; H14 library): 0.6 µM

NCCCC[C@@H](CC(=O)N[C@H]1CCCC[C@@H]1C(N)=O)NC(=O)[C@H]1CCCC[C@@H]1NC(=O)[C@H]1CCCC[C@@H]1NC(=O)C[C@H](Cc1ccc(O)cc1)NC(=O)[C@H]1CCCC[C@@H]1N [H14 YK]
Kd (RecQ-WH; H14 library): 411 µM | Kd (S100B; H14 library): 89 µM | Kd (S100A4; H14 library): 146 µM | Kd (CaM; H14 library): 17 µM

NCCCC[C@@H](CC(=O)N[C@H]1CCC[C@@H]1C(=O)N[C@H]1CCC[C@@H]1C(N)=O)NC(=O)[C@H]1CCC[C@@H]1NC(=O)[C@H]1CCC[C@@H]1NC(=O)C[C@H](Cc1ccccc1)NC(=O)[C@H]1CCC[C@@H]1NC(=O)[C@H]1CCC[C@@H]1N [H12 FK]
Kd (RecQ-WH; H12 library): 337 µM | Kd (Gal-1 [1]): 246 µM | Kd (S100B; H12 library): 37 µM | Kd (CaM; H12 library): 448 µM

CSCC[C@@H](CC(=O)N[C@H]1CCCC[C@@H]1C(N)=O)NC(=O)[C@H]1CCCC[C@@H]1NC(=O)[C@H]1CCCC[C@@H]1NC(=O)C[C@H](CCCNC(=N)N)NC(=O)[C@H]1CCCC[C@@H]1N [H14 RM]
Kd (RecQ-WH; H14 library): 294 µM | Kd (S100B; H14 library): 79 µM | Kd (S100A4; H14 library): 94 µM | Kd (CaM; H14 library): 30 µM

NCCCC[C@@H](CC(=O)N[C@H]1CCCC[C@@H]1C(N)=O)NC(=O)[C@H]1CCCC[C@@H]1NC(=O)[C@H]1CCCC[C@@H]1NC(=O)C[C@H](CC(=O)O)NC(=O)[C@H]1CCCC[C@@H]1N [H14 DK]
Kd (RecQ-WH; H14 library): 314 µM | Kd (S100B; H14 library): 144 µM | Kd (Gal-1 [2]): 405 µM

CC[C@H](C)[C@@H](CC(=O)N[C@H]1CCCC[C@@H]1C(N)=O)NC(=O)[C@H]1CCCC[C@@H]1NC(=O)[C@H]1CCCC[C@@H]1NC(=O)C[C@H](CC(=O)O)NC(=O)[C@H]1CCCC[C@@H]1N [H14 DI]
Kd (RecQ-WH; H14 library): 429 µM | Kd (Gal-1 [2]): 408 µM

NC(=O)[C@H]1CCCC[C@@H]1NC(=O)C[C@H](Cc1c[nH]c2ccccc12)NC(=O)[C@H]1CCCC[C@@H]1NC(=O)[C@H]1CCCC[C@@H]1NC(=O)C[C@H](CCC(=O)O)NC(=O)[C@H]1CCCC[C@@H]1N [H14 EW]
Kd (RecQ-WH; H14 library): 212 µM | Kd (S100B; H14 library): 305 µM | Kd (Gal-1 [2]): 458 µM
